Results from PMC6683083, “Lupin Peptide T9 (GQEQSHQDEGVIVR) Modulates the Mutant PCSK9^D374Y Pathway: in vitro Characterization of its Dual Hypocholesterolemic Behavior” (Nutrients, 2019).
Entries after “also recorded” stand apart in the source; their conditions may differ.

Tests used:
HMGCoAR = molecular target: T1, HMGCoAR (Homo sapiens, UniProt P04035); assay: In vitro HMGCoAR activity assay (Sigma kit); type: biochemical; conditions: 10^−5 to 10^−3 M; 37 °C; NADPH oxidation, absorbance at 340 nm, 0 and 10 min; means ± SD
T1 construct: purchased Sigma (Sigma-Aldrich, St. Louis, MO, USA)
T1 sequence (P04035 426-888 limits assumed): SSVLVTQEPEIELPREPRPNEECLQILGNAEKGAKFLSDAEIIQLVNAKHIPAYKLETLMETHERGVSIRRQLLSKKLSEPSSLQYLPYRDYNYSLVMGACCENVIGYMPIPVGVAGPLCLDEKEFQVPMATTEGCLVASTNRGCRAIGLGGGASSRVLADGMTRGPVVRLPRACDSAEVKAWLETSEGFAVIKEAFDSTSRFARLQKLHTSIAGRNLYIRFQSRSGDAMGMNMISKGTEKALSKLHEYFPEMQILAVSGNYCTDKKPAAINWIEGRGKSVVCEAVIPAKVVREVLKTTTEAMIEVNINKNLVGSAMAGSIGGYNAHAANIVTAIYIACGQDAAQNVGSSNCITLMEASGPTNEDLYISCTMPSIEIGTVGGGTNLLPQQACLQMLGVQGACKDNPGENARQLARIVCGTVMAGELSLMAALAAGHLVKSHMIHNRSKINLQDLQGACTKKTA
Experimental: The assay buffer, NADPH, substrate solution, and HMGCoAR were provided in the HMGCoAR Assay Kit (Sigma). The experiments were carried out as previously described. See Supplementary Materials for further details.
In vitro experiments were performed in order to confirm the in silico study according to which T9 was a potential inhibitor of the HMGCoAR activity. Peptide concentrations ranging from 10^−5 to 10^−3 M were tested.
Brief description of material and methods
Dulbecco’s modified Eagle’s medium (DMEM), stable L-glutamine, fetal bovine serum (FBS), phosphate buffered saline (PBS), penicillin/streptomycin, chemiluminescent reagent, and 96-well plates were purchased from Euroclone (Milan, Italy). […]
The assay buffer, NADPH, substrate solution, and HMGCoAR were provided in the HMGCoAR Assay Kit (Sigma). […] The absorbance at time 0 and 10 min were recorded. The HMGCoAR-dependent oxidation of NADPH and the inhibition properties of lupin peptides were measured by the absorbance reduction at 340 nm read by a microplate reader […]
Transfected HepG2 cells (1.5 × 10^5 cells/well) were treated with 100 μM T9 for 24 h. […] After centrifugation at 16,060 g for 15 min at 4 °C, the supernatant was recovered and total proteins were quantified by the Bradford method. […]

[1] = system: human intestinal Caco-2 cells; conditions: human intestinal Caco-2 cells / enterocytes; ref [13]; cited from earlier work
Source text: A previous study has shown that T9 impairs the protein–protein interaction between mutant D374Y Proprotein Convertase Subtilisin/Kexin 9 (PCSK9^D374Y) and the low-density lipoprotein receptor (LDLR), thus exerting a hypocholesterolemic effect. […] The present ... || GQEQSHQDEGVIVR (T9) is a peptide, deriving from the hydrolysis of β-conglutin with trypsin, showing a pI of 4.3, a hydrophobicity value of 25.97 Kcal mol^−1, and a net charge of −2 at pH 7.0. Its 14-aminoacids sequence comprises a polar negatively charged N-terminal, containing a glutamate residue, and a nonpolar positively charged C-terminal, containing an arginine residue. […] Two previous in silico studies have predicted the potential ...

intestinal peptidases = conditions: ref [13]; cited from earlier work
Source text: GQEQSHQDEGVIVR (T9) is a peptide, deriving from the hydrolysis of β-conglutin with trypsin, showing a pI of 4.3, a hydrophobicity value of 25.97 Kcal mol^−1, and a net charge of −2 at pH 7.0. Its 14-aminoacids sequence comprises a polar negatively charged N-terminal, containing a glutamate residue, and a nonpolar positively charged C-terminal, containing an arginine residue. […] Two previous in silico studies have predicted the potential ...

IC50 (HMGCoAR): 99.5 ± 0.56 µM
SMILES: CC[C@H](C)[C@H](NC(=O)[C@@H](NC(=O)CNC(=O)[C@H](CCC(=O)O)NC(=O)[C@H](CC(=O)O)NC(=O)[C@H](CCC(N)=O)NC(=O)[C@H](Cc1cnc[nH]1)NC(=O)[C@H](CO)NC(=O)[C@H](CCC(N)=O)NC(=O)[C@H](CCC(=O)O)NC(=O)[C@H](CCC(N)=O)NC(=O)CN)C(C)C)C(=O)N[C@H](C(=O)N[C@@H](CCCNC(=N)N)C(=O)O)C(C)C [T9]
intestinal absorption (in words) [1]: absorbed in human intestinal Caco-2 cells; also recorded: absorbed by enterocytes
stability to metabolic degradation operated by intestinal peptidases (in words) (intestinal peptidases): stable to the metabolic degradation operated by intestinal peptidases
